By IC50 is commonly meant the midpoint of a concentration-inhibition curve.

Data set [1] has as its target Receptor-type tyrosine-protein kinase FLT3 (Homo sapiens) (UniProt P36888). Briefly: Inhibition of Flt3 at 10 uM. Further details: scale not given: the % may be the effect or the level left; call rule not given here.
Another data set has as its system Caco-2. Briefly: Passive diffusion assessed as absorption potential across Caco-2 cell membrane. The class given is ADME, cell-based. The note with it: human.
In data set [2] the target is Glycogen synthase kinase-3 beta (Homo sapiens) (UniProt P49841). As to the kind of experiment: Inhibition of GSK3-beta at 10 uM. Also on record: scale not given: the % may be the effect or the level left.
Data set [3] deals with Cyclin-dependent kinase 2 (Homo sapiens) (UniProt P24941). Briefly: Inhibition of Cdk2 at 10 uM. Further details: scale not given: the % may be the effect or the level left.
Data set [4] in a line: Passive diffusion assessed as intrinsic permeability across Caco-2 cell membrane. The data set is classed as ADME, cell-based. The settings on record: human, read-out: permeability (converted). On the technique in general: Caco-2 monolayers are a common model of the intestinal barrier.
Data set [5] has as its target T1, Vascular endothelial growth factor receptor 2 (Homo sapiens, UniProt P35968). Briefly: Inhibition of VEGFR2 assessed as inhibition of phosphorylation in human 293 cells by cell-based ELISA. The data set is classed as functional, HEK293. On the technique in general: ELISA stands for enzyme-linked immunosorbent assay.
Data set [6] has as its target Vascular endothelial growth factor receptor 1 (Homo sapiens, UniProt P17948). As to the kind of experiment: Inhibition of VEGFR1 assessed as inhibition of phosphorylation in presence of 2 uM ATP by HTRF assay. The data set is classed as functional.
The target of data set [7] is Epidermal growth factor receptor (Homo sapiens) (UniProt P00533). Briefly: Inhibition of ErbB1 at 10 uM. Further details: scale not given: the % may be the effect or the level left.
In data set [8] the target is Hepatocyte growth factor receptor (Homo sapiens) (UniProt P08581). Briefly: Inhibition of cMet at 10 uM. Further details: scale not given: the % may be the effect or the level left.
The target in data set [9] is RAC-alpha serine/threonine-protein kinase (Homo sapiens) (UniProt P31749). Briefly: Inhibition of PKB/Akt at 10 uM. Also on record: scale not given: the % may be the effect or the level left.
For data set [10], the target named is Receptor tyrosine-protein kinase erbB-2 (Homo sapiens) (UniProt P04626). Briefly: Inhibition of ErbB2/Her2 at 10 uM. Further details: scale not given: the % may be the effect or the level left.
Data set [11] has as its target Insulin-like growth factor 1 receptor (Homo sapiens) (UniProt P08069). Briefly: Inhibition of IGF1R at 10 uM. Further details: scale not given: the % may be the effect or the level left.
The species entered for data set [12] is Homo sapiens. Briefly: Inhibition of PKA at 10 uM. Also on record: scale not given: the % may be the effect or the level left.
For data set [13], the target named is T1, Vascular endothelial growth factor receptor 2. As to the kind of experiment: Inhibition of VEGFR2 assessed as inhibition of phosphorylation in presence of 2 uM ATP by HTRF assay. The class given is functional. A general note: TR-FRET usually uses a lanthanide donor and a delayed reading to cut background.
The species entered for data set [14] is Homo sapiens. Briefly: Inhibition of Cdk1 at 10 uM. Also on record: scale not given: the % may be the effect or the level left.
For data set [15], the target named is Vascular endothelial growth factor receptor 3 (Homo sapiens) (UniProt P35916). Briefly: Inhibition of Flt4 at 10 uM. Further details: scale not given: the % may be the effect or the level left.
For data set [16], the species on record is Homo sapiens. As to the kind of experiment: Inhibition of bcr-Abl at 10 uM. Further details: scale not given: the % may be the effect or the level left.
Data set [17] concerns the target RAF proto-oncogene serine/threonine-protein kinase (Homo sapiens) (UniProt P04049). As to the kind of experiment: Inhibition of Raf1 at 10 uM. Further details: scale not given: the % may be the effect or the level left.
The species entered for data set [18] is Homo sapiens. Briefly: Inhibition of InR at 10 uM. Further details: scale not given: the % may be the effect or the level left.
Data set [19] has as its target Fibroblast growth factor receptor 1 (Homo sapiens) (UniProt P11362). Briefly: Inhibition of FGFR1 at 10 uM. Further details: scale not given: the % may be the effect or the level left.

Bounds are passed on as bounds.

Vascular endothelial growth factor receptor 1, sequence (P17948 whole entry): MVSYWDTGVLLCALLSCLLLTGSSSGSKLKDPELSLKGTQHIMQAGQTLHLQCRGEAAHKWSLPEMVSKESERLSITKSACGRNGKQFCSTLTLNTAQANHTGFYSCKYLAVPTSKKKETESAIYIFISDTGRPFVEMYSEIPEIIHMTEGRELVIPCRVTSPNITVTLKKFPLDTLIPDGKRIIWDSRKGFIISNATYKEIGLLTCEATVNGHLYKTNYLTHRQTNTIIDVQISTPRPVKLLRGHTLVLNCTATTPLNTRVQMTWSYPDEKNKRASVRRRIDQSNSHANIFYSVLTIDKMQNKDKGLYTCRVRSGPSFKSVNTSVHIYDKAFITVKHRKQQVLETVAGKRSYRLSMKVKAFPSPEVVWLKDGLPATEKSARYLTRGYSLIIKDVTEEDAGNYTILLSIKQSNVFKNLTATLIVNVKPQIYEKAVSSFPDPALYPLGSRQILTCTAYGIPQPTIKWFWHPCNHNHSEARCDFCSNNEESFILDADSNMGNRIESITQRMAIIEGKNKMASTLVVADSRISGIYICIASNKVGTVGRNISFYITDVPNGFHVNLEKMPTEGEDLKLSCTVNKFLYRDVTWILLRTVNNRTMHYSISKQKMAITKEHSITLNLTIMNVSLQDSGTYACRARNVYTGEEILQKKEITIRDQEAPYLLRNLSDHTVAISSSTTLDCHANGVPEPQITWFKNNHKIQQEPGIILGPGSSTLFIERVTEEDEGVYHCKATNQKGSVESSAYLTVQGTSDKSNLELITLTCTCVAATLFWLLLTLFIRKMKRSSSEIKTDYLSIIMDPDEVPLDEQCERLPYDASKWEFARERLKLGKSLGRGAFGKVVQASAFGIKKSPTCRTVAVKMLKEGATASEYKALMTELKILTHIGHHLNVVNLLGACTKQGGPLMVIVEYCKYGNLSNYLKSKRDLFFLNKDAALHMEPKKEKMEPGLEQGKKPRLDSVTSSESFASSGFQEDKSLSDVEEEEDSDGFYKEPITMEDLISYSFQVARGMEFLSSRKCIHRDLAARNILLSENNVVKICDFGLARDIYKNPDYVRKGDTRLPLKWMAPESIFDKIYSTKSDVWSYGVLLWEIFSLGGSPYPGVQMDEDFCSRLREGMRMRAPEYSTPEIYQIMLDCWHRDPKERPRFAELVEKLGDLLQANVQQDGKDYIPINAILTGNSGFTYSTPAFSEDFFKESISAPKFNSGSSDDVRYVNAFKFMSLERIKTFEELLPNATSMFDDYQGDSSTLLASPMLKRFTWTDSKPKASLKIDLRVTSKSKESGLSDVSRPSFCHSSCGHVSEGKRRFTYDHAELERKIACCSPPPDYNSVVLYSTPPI
RAC-alpha serine/threonine-protein kinase (Homo sapiens), sequence (P31749 whole entry): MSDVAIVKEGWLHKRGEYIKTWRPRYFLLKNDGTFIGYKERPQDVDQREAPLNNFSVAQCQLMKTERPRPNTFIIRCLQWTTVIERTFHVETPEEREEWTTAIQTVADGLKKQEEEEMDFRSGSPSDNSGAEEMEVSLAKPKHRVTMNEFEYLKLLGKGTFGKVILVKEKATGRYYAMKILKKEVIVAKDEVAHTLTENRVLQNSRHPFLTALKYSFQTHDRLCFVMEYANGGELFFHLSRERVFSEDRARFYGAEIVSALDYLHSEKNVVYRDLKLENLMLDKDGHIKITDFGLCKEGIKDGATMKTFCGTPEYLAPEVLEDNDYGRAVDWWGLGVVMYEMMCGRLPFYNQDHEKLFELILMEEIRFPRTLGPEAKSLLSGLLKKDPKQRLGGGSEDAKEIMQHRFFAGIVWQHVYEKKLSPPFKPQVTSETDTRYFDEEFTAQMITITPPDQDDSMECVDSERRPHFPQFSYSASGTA
Fibroblast growth factor receptor 1 (Homo sapiens), sequence (P11362 22-822 limits assumed): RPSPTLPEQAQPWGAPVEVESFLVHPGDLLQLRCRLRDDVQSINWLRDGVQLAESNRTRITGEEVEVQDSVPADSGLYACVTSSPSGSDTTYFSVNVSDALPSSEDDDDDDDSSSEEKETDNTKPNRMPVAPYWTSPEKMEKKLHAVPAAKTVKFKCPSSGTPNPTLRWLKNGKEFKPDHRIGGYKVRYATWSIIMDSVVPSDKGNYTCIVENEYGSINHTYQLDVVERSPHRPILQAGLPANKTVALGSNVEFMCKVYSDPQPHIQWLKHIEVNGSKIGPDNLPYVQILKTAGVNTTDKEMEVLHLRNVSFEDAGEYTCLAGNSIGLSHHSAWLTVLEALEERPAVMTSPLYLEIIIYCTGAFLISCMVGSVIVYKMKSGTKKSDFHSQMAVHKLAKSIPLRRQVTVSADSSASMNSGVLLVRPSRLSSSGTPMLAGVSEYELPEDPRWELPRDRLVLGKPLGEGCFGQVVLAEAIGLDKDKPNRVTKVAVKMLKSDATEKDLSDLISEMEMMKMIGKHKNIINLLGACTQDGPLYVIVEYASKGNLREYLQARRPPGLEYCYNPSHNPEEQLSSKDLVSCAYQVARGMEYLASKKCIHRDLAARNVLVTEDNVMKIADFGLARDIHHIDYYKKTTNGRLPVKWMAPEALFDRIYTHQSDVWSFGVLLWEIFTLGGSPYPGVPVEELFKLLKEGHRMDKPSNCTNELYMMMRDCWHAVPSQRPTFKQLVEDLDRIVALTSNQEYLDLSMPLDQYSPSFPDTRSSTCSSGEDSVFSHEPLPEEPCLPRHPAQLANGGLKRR
Glycogen synthase kinase-3 beta (Homo sapiens), sequence (P49841 whole entry, looked up): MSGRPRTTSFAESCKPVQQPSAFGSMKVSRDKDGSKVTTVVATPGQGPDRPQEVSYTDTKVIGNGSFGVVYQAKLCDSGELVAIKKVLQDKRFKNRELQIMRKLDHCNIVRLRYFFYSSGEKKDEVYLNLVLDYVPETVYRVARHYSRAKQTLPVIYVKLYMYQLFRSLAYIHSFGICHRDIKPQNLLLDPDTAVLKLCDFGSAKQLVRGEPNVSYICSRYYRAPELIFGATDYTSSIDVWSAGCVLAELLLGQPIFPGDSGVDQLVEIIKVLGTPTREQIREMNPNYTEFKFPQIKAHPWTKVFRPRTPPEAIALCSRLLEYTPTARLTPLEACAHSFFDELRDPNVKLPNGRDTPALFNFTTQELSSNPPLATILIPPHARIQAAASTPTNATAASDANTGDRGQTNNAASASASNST
Epidermal growth factor receptor (Homo sapiens), sequence (P00533 whole entry): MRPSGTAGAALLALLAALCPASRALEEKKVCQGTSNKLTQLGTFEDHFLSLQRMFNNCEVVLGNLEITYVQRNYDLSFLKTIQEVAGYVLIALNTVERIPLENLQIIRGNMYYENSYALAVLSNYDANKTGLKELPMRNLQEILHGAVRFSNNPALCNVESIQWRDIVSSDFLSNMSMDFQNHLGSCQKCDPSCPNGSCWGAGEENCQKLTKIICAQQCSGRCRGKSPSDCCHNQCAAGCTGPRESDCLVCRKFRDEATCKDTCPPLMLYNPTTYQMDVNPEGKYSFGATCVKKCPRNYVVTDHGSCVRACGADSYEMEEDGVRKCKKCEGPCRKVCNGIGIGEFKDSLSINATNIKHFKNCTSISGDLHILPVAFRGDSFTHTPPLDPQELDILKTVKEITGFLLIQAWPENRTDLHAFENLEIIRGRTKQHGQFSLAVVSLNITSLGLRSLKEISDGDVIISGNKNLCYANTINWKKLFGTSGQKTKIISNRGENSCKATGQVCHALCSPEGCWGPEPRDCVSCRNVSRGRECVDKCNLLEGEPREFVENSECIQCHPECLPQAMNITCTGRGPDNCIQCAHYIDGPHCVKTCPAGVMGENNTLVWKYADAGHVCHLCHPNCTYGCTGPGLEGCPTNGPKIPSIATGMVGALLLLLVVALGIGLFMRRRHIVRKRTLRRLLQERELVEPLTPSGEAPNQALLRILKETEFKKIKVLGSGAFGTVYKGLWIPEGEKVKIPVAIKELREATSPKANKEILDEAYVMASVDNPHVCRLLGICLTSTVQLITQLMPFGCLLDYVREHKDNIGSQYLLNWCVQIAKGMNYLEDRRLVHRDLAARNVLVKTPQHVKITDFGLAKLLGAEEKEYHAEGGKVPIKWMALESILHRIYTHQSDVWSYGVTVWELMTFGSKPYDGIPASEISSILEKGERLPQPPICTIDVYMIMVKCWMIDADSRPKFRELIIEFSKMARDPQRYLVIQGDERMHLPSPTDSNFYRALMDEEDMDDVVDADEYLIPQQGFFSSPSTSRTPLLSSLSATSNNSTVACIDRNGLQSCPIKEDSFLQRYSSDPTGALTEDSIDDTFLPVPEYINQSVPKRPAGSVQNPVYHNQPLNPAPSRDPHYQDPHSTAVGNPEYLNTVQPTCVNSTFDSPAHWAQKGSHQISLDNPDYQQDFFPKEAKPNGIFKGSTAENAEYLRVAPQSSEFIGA
RAF proto-oncogene serine/threonine-protein kinase (Homo sapiens), sequence (P04049 whole entry): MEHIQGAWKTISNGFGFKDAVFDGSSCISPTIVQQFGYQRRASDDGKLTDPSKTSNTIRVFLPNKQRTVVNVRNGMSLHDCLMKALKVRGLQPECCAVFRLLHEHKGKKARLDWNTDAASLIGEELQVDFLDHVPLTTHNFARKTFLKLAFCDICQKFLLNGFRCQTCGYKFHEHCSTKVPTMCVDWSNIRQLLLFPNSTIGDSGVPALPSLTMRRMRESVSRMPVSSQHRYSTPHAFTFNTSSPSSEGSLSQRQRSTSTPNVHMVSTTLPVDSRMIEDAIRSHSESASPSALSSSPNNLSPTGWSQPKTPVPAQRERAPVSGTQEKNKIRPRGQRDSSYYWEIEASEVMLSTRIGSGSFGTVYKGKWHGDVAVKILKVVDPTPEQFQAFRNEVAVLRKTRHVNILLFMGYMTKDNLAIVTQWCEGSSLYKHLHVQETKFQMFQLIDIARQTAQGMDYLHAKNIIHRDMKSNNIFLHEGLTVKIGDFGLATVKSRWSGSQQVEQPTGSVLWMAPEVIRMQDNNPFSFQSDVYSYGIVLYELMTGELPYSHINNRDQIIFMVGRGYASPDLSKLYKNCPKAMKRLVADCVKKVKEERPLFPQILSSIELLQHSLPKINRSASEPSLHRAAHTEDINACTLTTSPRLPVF

For `CCc1ccc(NC(=O)c2ccnn2CCc2ccncc2)cc1`, the Activity in [1] was above 30%; in the data set on Caco-2, “Active”; in data set [2], above 30%; in [3] it was above 30%; in data set [7] it was below 30%; in data set [8], above 30%. In addition, the Activity (in data set [9]; in data set [10]; in data set [11]; in the data set listed under Homo sapiens [12]; in the data set filed under Homo sapiens [14]; in data set [15]) was above 30% throughout. In addition, the Activity (in the data set filed under Homo sapiens [16]; in data set [17]; in the data set filed under Homo sapiens [18]; in [19]) was above 30% each time. The Papp in data set [4] was 9.7 ×10⁻⁶ cm/s. Further, the values for the IC50 in [5], in data set [6] and in data set [13] were 0.086 µM, 0.22 µM and 0.12 µM, respectively.
As for `O=C(Nc1ccc(C(F)(F)F)cc1)c1ccnn1CCc1ccncc1`, the Activity in data set [1] was above 30%; with Caco-2, “Active”; in data set [2], above 30%; in [3], above 30%; in [7] it was below 30%; in data set [8], above 30%. Further, the Activity (in data set [9]; in data set [10]; in [11]; in the data set filed under Homo sapiens [12]; in the data set filed under Homo sapiens [14]; in data set [15]) was above 30% throughout. For the same molecule, the Activity (in the data set listed under Homo sapiens [16]; in data set [17]; in the data set filed under Homo sapiens [18]; in data set [19]) was above 30% in each case. The Papp in data set [4] was 6.42 ×10⁻⁶ cm/s. In addition, the values for the IC50 in [5], in data set [6] and in [13] were 0.048 µM, 0.38 µM and 0.069 µM, respectively.
On to `CC(C)c1ccc(NC(=O)c2ccnn2CCc2ccncc2)cc1`, for which the Activity in data set [1] was above 30%; in the data set with Caco-2 it was “Active”; in data set [2], above 30%; in data set [3] it was above 30%; in [7] it was below 30%; in data set [8], above 30%. The Activity (in data set [9]; in [10]; in data set [11]; in the data set filed under Homo sapiens [12]; in the data set listed under Homo sapiens [14]; in data set [15]) was above 30% each time. For the same molecule, the Activity (in the data set filed under Homo sapiens [16]; in [17]; in the data set filed under Homo sapiens [18]; in [19]) was above 30% each time. For the same molecule, the Papp in [4] was 8.18 ×10⁻⁶ cm/s. In addition, the values for the IC50 in data set [5], in data set [6] and in data set [13] were 0.053 µM, 0.44 µM and 0.074 µM, respectively.
For the molecule `O=C(Nc1ccc(C(F)(F)F)c(Cl)c1)c1nccn1CCc1ccncc1`, the Activity in [1] was above 30%; in [2], above 30%; in [3], above 30%; in [7], below 30%; in [8], above 30%; in data set [9], above 30%. Further, the Activity (in data set [10]; in data set [11]; in the data set listed under Homo sapiens [12]; in the data set listed under Homo sapiens [14]; in data set [15]; in the data set listed under Homo sapiens [16]) was above 30% in each case. Besides, the Activity (in data set [17]; in the data set filed under Homo sapiens [18]; in data set [19]) was above 30% in each case. In addition, the values for the IC50 in data set [5], in data set [6] and in [13] were 4.95 µM, 4.56 µM and 1.31 µM, respectively.
In the case of `O=C(Nc1ccc(OC(F)(F)F)cc1)c1nc2ccccc2n1CCc1ccncc1`, the Activity in data set [1] is above 30%; in [2], above 30%; in data set [3], above 30%; in data set [7], below 30%; in data set [8], above 30%; in data set [9], above 30%. Moreover, the Activity (in [10]; in [11]; in the data set filed under Homo sapiens [12]; in the data set filed under Homo sapiens [14]; in data set [15]; in the data set listed under Homo sapiens [16]) was above 30% each time. Further, the Activity (in data set [17]; in the data set listed under Homo sapiens [18]; in data set [19]) was above 30% in each case. Also, the IC50 in [5], in [6] and in [13] was above 10 µM in each case.

The values are drawn from ChEMBL document CHEMBL1148870, “Novel inhibitors of VEGF receptors-1 and -2 based on azole-5-carboxamide templates” (Bioorg Med Chem Lett, 2007).
